The subject of experiment [1] is methicillin-susceptible Staphylococcus aureus (MSSA) ATCC 29213. The experiment can be described thus: MIC by broth microdilution (CLSI M07-A8), with PS80. The format is cell-based. Here is the method: Determination of MIC values to methicillin-susceptible Staphylococcus aureus (MSSA).
Minimum Inhibitory Concentration (MIC) is defined as the lowest concentration of antibacterial agent required to inhibit growth of a microorganism after incubation. The antibiotics vancomycin (Van) and ristomycin (Rist) were obtained from Sigma-Aldrich while chloroeremomycin (CE) and oritavancin (Ori) were obtained from the Medicine Company Inc., U.S.A. To prepare antibiotic stock solutions for MICs assay, 5 mg/ml of each drug was dissolved in water containing an appropriate volume of 0.002% polysorbate-80 or PS80 obtained from Sigma-Aldrich which corresponds to 20 µM to eliminate nonspecific interactions of drugs to surfaces particularly for Ori which is known to bind to glass and plastics13. Microbiological broth with PS80 maintained at 20 µM was used in the drug dilution steps until the required final (assay) concentration. Diluted concentrations of each drug were assayed by adding an inoculum of methicillin-susceptible Staphylococcus aureus (MSSA) ATCC 29213 cells and the MIC determined by broth microdilution according to Clinical Laboratory Standards Institute (CLSI) methodology M07-A8 (CLSI 2009a)14. The results as shown in Supplementary Table S2 for each antibiotic against clinical isolate of MSSA ATCC 29213 strains conducted in the presence of […]
PS80 are within the quality control ranges defined in the guideline15. […]
(In broth dilution the organism is exposed to a series of concentrations in liquid medium.)

A further experiment has as its target VSR (Ac-VSR) in solution. Conditions: cited from earlier work.
The test system of experiment [2] is membrane bound VRR (competitor Ac-VSR). The experiment can be described thus: Competitive inhibition of drug-VRR cantilever response by Ac-VSR in solution. The class given is binding. The settings on record: for IC50: Van 50 μM or Ori 0.1 μM against VRR cantilever, fit of equation (1), read-out: IC50 (concentration of antagonist Ac-VSR giving 50% inhibition of drug-receptor interactions at the surface); for Ac-VSR concentration required to inhibit the mechanical response: Van 50 μM, Ori 0.1 μM against VRR. Here is the method:
In the first set of experiments, we assessed whether the 2-D boundary layer could mediate more efficient complex aggregation of antibiotics and thus lead to enhanced signal transduction compared to a 3-D solution. To achieve this, diacetyl vancomycin susceptible receptor (or Ac-VSR)[14] was added to the solution containing Van or Ori in order to act as a competitor against membrane bound VRR. […] The concentrations of Van and Ori in solution were kept constant at 50 μM and 0.1 μM respectively. These particular concentrations were chosen because (1) they give rise to relatively large mechanical bending signals, (2) they fall within the linear portions of the Langmuir adsorption isotherms, and (3) they require relatively low levels of Ac-VSR to inhibit the mechanical response at the surface. We therefore reasoned that if the interaction between a drug and Ac-VSR is independent of any surface effects then the amount of Ac-VSR which inhibits the mechanical response at a surface is expected to be the same for both Van and Ori. The concentration of antagonist (Ac-VSR) that gives rise to 50% inhibition (IC50) of drug-receptor interactions at the surface was used as measure of membrane effects on the association kinetics and mechanical response. […] To calculate the IC50, we analyzed the data using equation (1), whose detailed derivation has been reported previously.
Here σeq is the equilibrium mechanical stress, σligand1 is the mechanical stress generated by ligand1 in the absence of a competing ligand2, σligand2 is the corresponding minimum stress generated by ligand1 in the presence of a large excess of the concentration of competing ligand2. […] The IC50 for Ori is 3-fold larger than that of Van.

The conditions of experiment [3]: ligand-ligand dissociation constant in solution; ref. 2 (Van, CE, Ori), ref. 5 (Rist), supplementary references; read-out: K1 Solution (complex aggregation constant); cited from earlier work.
Setting [4] is: MSSA ATCC 29213, with PS80, converted from mg/l.
The mark [5] stands for this setting: VSR in solution, ref. 1 (Van, Rist), ref. 7 (CE), ref. 2 (Ori), supplementary references, read-out: Ksurf Solution.
The mark [6] stands for this setting: solution, read-out: binding affinity against Ac-VSR.

Values after ≈ are worked out from the molar mass of the structure shown. Values joined by “and” are separate entries in the source; they are usually repeats but may differ in a detail not shown here. Equal entries are not always repeated. Where two headings read alike, the source gives them in different places.

As to `CN[C@H](CC(C)C)C(=O)N[C@H]1C(=O)N[C@@H](CC(N)=O)C(=O)N[C@H]2C(=O)N[C@H]3C(=O)N[C@H](C(=O)N[C@H](C(=O)O)c4cc(O)cc(O)c4-c4cc3ccc4O)[C@H](O[C@H]3C[C@](C)(N)[C@@H](O)[C@H](C)O3)c3ccc(c(Cl)c3)Oc3cc2cc(c3O[C@@H]2O[C@H](CO)[C@@H](O)[C@H](O)[C@H]2O[C@H]2C[C@](C)(NCc3ccc(-c4ccc(Cl)cc4)cc3)[C@@H](O)[C@H](C)O2)Oc2ccc(cc2Cl)[C@H]1O` [Ori, oritavancin], the minimum inhibitory concentration (MIC) in experiment [1] (setting [4]) was 0.03 µM (≈ 0.0538 µg/mL); in experiment [1] (Staphylococcus aureus), 0.06 µg/mL and 0.03 µM. In addition, the Kd at VSR (Ac-VSR) in solution (setting [5]) was 3800 nM; at VSR (Ac-VSR) in solution (setting [6]), around 1000 nM; in experiment [3], 0.0016 mM. Further, the “IC50 for Ori relative to Van” value in experiment [2] (Ac-VSR competition against VRR) was 3 fold. The IC50 in experiment [2] turned out to be 50.7 ± 2.1 µM. Moreover, in experiment [2], the “Ac-VSR concentration required to inhibit the mechanical response” value is listed as “more than 500 μM”.
Regarding `CN[C@H](CC(C)C)C(=O)N[C@H]1C(=O)N[C@@H](CC(N)=O)C(=O)N[C@H]2C(=O)N[C@H]3C(=O)N[C@H](C(=O)N[C@H](C(=O)O)c4cc(O)cc(O)c4-c4cc3ccc4O)[C@H](O)c3ccc(c(Cl)c3)Oc3cc2cc(c3O[C@@H]2O[C@H](CO)[C@@H](O)[C@H](O)[C@H]2O[C@H]2C[C@](C)(N)[C@H](O)[C@H](C)O2)Oc2ccc(cc2Cl)[C@H]1O` [Van, vancomycin], the MIC in experiment [1] (setting [4]) was 0.67 µM (≈ 0.971 µg/mL); in experiment [1] (Staphylococcus aureus), 1 µg/mL and 0.67 µM. For the same compound, the figures for the Kd (at VSR (Ac-VSR) in solution (setting [5]); on VSR (Ac-VSR) in solution (setting [6]); in experiment [3]) were 1000 nM, around 1000 nM and 20 mM, respectively. Besides, the IC50 in experiment [2] turned out to be 15.4 ± 0.2 µM. In addition, the “Ac-VSR concentration required to inhibit the mechanical response” value in experiment [2] was determined as 500 µM.

The MIC is the lowest concentration that inhibits growth of the organism. A higher MIC goes with a need for much substance.

(Values after PMC5290737, “Surface mediated cooperative interactions of drugs enhance mechanical forces for antibiotic action” (Scientific Reports, 2017).)
